Among the data in a melting point compilation (Tetko et al.; mined from patent text by program, amines drawn as free bases though some values may be those of a salt) are melting point values, retold here.

Usually melting point stands for the temperature, or range, at which the solid turns liquid.

A value given as a limit tells only on which side of the number the result lay.

Compound `CC(C)(C)C(CO)NC(=O)C(CC(=O)O)n1ccc(-c2ccc(-c3ccc(C(N)=O)cc3)cc2)c1` (stereo not drawn) showed a melting point of 192 to 194 °C.

For `N#Cc1ncn2c1[C@@H]1CCCN1C(=O)c1sccc1-2`, the melting point was 249 to 251 °C.

Compound `CCOCn1cc(C(C)=O)c2c(OC)cc(Br)nc21` gave a melting point of 114 to 116 °C.

The compound `O=C(O)c1c[nH]c2cn[nH]c2c1=O` yielded a melting point of over 330 °C.

`C[Si](C)(C)NC(=O)CC(=O)N[Si](C)(C)C` displayed a melting point of 72 to 76 °C.

In the case of `COc1nc2ccccc2c2c1ncn2CC(O)CO` (stereo not drawn), the melting point lay in the range of 214 to 216 °C.

Turning to `Cc1cc(Sc2ccc3nc(CCl)n(C)c3n2)cc(C)c1[N+](=O)[O-]`, the melting point lay within 133 to 135 °C.

The compound `O=C(CSc1ncccn1)C12CC3CC(CC(C3)C1)C2` yielded a melting point of 100 to 101 °C.

`CCOC(=O)c1cc(C#N)c(N)cc1OC` showed a melting point of 164 °C.

`N#Cc1ccc(C(=C2CCCCCC2)c2ccc(O)cc2)cc1` had a melting point of 110 to 111 °C.

For `c1cn(Cc2ccc3c(c2)Cc2c(-c4ccsc4)n[nH]c2-3)cn1`, the melting point fell in the range of 255 to 260 °C.

In turn, `Cc1c(Cl)cccc1Nc1ncccc1C(=O)OCOC(=O)C(C)(C)C` displayed a melting point of 90 to 91 °C.

`CC1c2ccccc2C=Cn2c1n[nH]c2=O` (stereo not drawn): the melting point lay within 119 to 120 °C.

Regarding `CCOC(=O)c1c(COC(C)=O)cccc1S(=O)(=O)NC(=O)Nc1nc(OC)cc(OC)n1`, the melting point was in the range of 162 to 163 °C.

`CCOC(=O)CC1(c2ccccc2)CCN(C(c2ccccc2)(c2ccccc2)c2ccccc2)CC1` gave a melting point of 120 °C.

For `CCCC(=O)NCc1c(-c2ccc(C)cc2)nc2ccc3ccccc3n12`, the melting point is 238 to 239 °C.

As to `O=C1CCC(N2Cc3cc(CNC(=O)c4cccc(Cl)c4)ccc3C2=O)C(=O)N1` (stereo not drawn), the melting point lay in the range of 293 to 295 °C.

`CCOC(=O)c1cc(O)c2nc(C)n(C)c2c1`: the melting point was in the range of 272 to 273 °C.

Compound `COC(=O)c1ccc(Cc2cn(C(C)C)c3ccc(C=C(C)C(=O)O)cc23)c(OC)c1` gave a melting point of 143 to 145 °C.

`CN1C(=O)[C@H](NC(=O)Nc2ccc3c(c2)CCC3)N=C(c2ccccc2)c2ccccc21` had a melting point of 156 to 158 °C.

`NS(=O)(=O)OCCN1CCCC1=O` gave a melting point of 110 to 112 °C.

`COc1ccc(-c2cc(=O)cc(N3CCOCC3)o2)cc1` registered a melting point of 220 °C.

Compound `COC(=NS(=O)(=O)c1nc(-c2ccccc2)ns1)C(C)C` had a melting point of 123 to 124 °C.

`O=C(NC(Cc1ccccc1[N+](=O)[O-])c1ccccc1)C1CCCCC1` (stereo not drawn) gave a melting point of 210 to 212 °C.

`O=C1Nc2ccccc2Nc2ccccc21` showed a melting point of 121 to 123 °C.

`CCc1ccc2c(c1)C=Cc1cc(C)ccc1C2c1cn(-c2ccc(SCC(=O)O)nn2)c(=O)[nH]c1=O` (stereo not drawn) gave a melting point of 225 to 230 °C.

In turn, `COC(=O)c1cn(C2CC2)c2nc(C)ccc2c1=O` showed a melting point of 204 to 205 °C.

The compound `CC(C)n1c(CCC2C[C@@H](O)CC(=O)O2)c(-c2ccc(F)cc2)c(-c2ccccc2)c1C(=O)Nc1ccc(F)cc1` (stereo partly drawn) had a melting point of 98 to 99 °C.

Take `C[Si](C)(O)O[Si](C)(C)c1ccc(OC(=O)Oc2ccc([Si](C)(C)O[Si](C)(C)O)cc2)cc1`: the melting point lay in the range of 62 to 63 °C.

`O=C(NCc1ccccn1)Nc1cc(-n2c(=O)oc3ccccc32)ccn1`: the melting point was in the range of 237 to 238 °C.

The compound `NC(=NO)c1nc(Cl)c(Cl)[nH]1` returned a melting point of 270 to 275 °C.

In turn, `CCCNC(=O)Nc1ccc(N)cc1C(=O)NCC1CCN(C(c2ccccc2)c2ccccc2)CC1` had a melting point of 213 to 214 °C.

With `Cc1cccn2cc(CN3CCN(c4ccc(Cl)cc4)CC3)nc12`, the melting point is 102 to 104 °C.

The compound `C=Cc1ncn(-c2c(Cl)cc(C(F)(F)F)cc2Cl)n1` came in with a melting point of 97 to 99 °C.

Consider `OC(c1ccccc1)(c1ccc(Oc2ccccc2)cc1)c1ccccn1` (stereo not drawn), for which the melting point came to 114 °C.

Compound `COc1cc(C(C)=O)cc(N)c1OC` displayed a melting point of 63 to 65 °C.

In the case of `Cc1[nH]cnc1CSCCNc1[nH]cc(-c2ccccc2)c1[N+](=O)[O-]`, the melting point was 182 to 184 °C.

Compound `O=C(Nc1ccccc1)N1CCc2[nH]cc3c(=O)n(-c4ccc(Cl)cc4)nc-3c2C1` gave a melting point of 293 to 295 °C.

`O=C(C=Cc1cccc(F)c1F)c1cnc2sc3c(n12)CCCCC3` yielded a melting point of 193 to 195 °C.

Turning to `CCOC(=O)c1ncn2c1CN=C(c1ccccn1)c1cc(C#C[Si](C)(C)C)ccc1-2`, the melting point is 205 to 206 °C.

`CS(=O)C1C=Nc2cc(Br)ccc2C1=O` (stereo not drawn) showed a melting point of 255 to 256 °C.

Consider `Cc1cc(OC/C=C(/c2ccc(Cl)cc2)c2ccc(C#CC(C)(C)C)cc2)ccc1OCC(=O)O`, for which the melting point is 144 to 147 °C.

In the case of `Cc1cc(Br)c(C=O)c2ccccc12`, the melting point was determined as 93 °C.

As to `O=C(Nc1cccc(S(=O)(=O)NC2CC2)c1)c1cnn2c(C(F)F)cc(-c3ccc(Cl)cc3)nc12`, the melting point was 262 °C.

As to `COc1cc(C)c(C(=O)c2c(Cl)cccc2Cl)cc1OC`, the melting point fell in the range of 101 to 103 °C.

In the case of `COCCCNS(=O)(=O)NC(=O)/C(C)=C/c1ccc(OC(C)C)cc1Oc1ncc(C(F)(F)F)cc1Cl`, the melting point is 120 to 121 °C.

`Cn1nnnc1-c1cnc2cc(F)c(F)cc2c1O` had a melting point of over 300 °C.

Turning to `Nc1ccc2nc(-c3cccnc3)nn2c1`, the melting point came to 230 °C.

Compound `COc1ccc2c(c1)CCC(C(=O)Cc1ccccc1)C2C#N` (stereo not drawn) yielded a melting point of 139 to 142 °C.

On to `CCS(=O)(=O)C(NC(C)=O)C(=O)NCc1ccccc1` (stereo not drawn), for which the melting point was in the range of 161 to 163 °C.

`Brc1ccc2c(c1-c1c(Br)ccc3c1CCCC3)CCCC2` showed a melting point of 146 to 147 °C.

The compound `C[C@H](Nc1ncnc2[nH]cnc12)c1oc2ccc(F)cc2c(=O)c1-c1ccccc1` came in with a melting point of 196 to 198 °C.

The compound `NC1=NN(c2ccc3ccccc3c2)CC1` yielded a melting point of 190 to 191 °C.

As for `CCN(CC)CCNC(=O)c1ccc(NC(=O)c2ccc3c(c2)OCO3)cc1OC`, the melting point worked out at 131 °C.

`CCc1cc(-c2ccc(-c3ccnn3C)cc2)ccc1OC` registered a melting point of 97 to 100 °C.

As for `O=C1CCCCC1C(=S)Nc1ccc(Cl)cc1F` (stereo not drawn), the melting point was 97 to 98 °C.

Compound `c1ncc2ncncc2n1` gave a melting point of 124 to 126 °C.

The compound `CCOCc1nc2c(N)nc3cc(Br)cnc3c2n1CC(C)C` displayed a melting point of 163 to 164 °C.

Compound `O=C1N=C(N2CCCCCC2)SC1=Cc1cccc(-c2ccc(O)c(C34CC5CC(CC(C5)C3)C4)c2)c1` registered a melting point of 321 to 324 °C.

In turn, `O=C(O)Cc1cc(C(=O)Cc2ccccc2Cl)ccc1O` yielded a melting point of 230 °C.

`Cc1cc(C(O)(C(F)(F)F)C(F)(F)F)cc(C)c1NCCCN` gave a melting point of 130 to 133 °C.

Take `Nc1cc(Br)cnc1CCCCNc1ncc(Cc2ccc(F)cc2)c(=O)[nH]1`: the melting point was 146 to 148 °C.

In turn, `O=C(Nc1ccc(F)cc1F)C1c2ccccc2COc2ccc(Br)cc21` (stereo not drawn) showed a melting point of 189 to 191 °C.

Compound `COc1cc(OC)nc(Oc2ccccc2C=O)n1` returned a melting point of 81 °C.

Compound `O=C(CNc1ccc(F)c(F)c1)Nc1c(Cl)ccc2nc(N3CC[C@@H](O)C3)ccc12` came in with a melting point of 238 to 240 °C.

Turning to `CCCCCCCCOc1ccc(-c2ncc(OC(=O)[C@@H](Cl)[C@@H](C)CC)cn2)c(F)c1F`, the melting point is 66.2 °C.

Turning to `CCn1c(-c2sc(NC(=O)c3ccncc3)nc2-c2ccco2)cccc1=O`, the melting point is over 300 °C.

Regarding `Cc1ccc(F)cc1C(=O)Nc1ccc(C(=O)N2Cc3ccnn3Cc3ccccc32)c(Cl)c1`, the melting point was in the range of 137 to 140 °C.

Take `O=C(Cc1noc2ccccc12)N[C@H]1CC[C@H](CCN2CCN(c3nccc4c3OCC4)CC2)CC1`: the melting point was found to be 211 °C.

As for `O=C(c1ccc([N+](=O)[O-])[nH]1)C(Cl)(Cl)Cl`, the melting point was in the range of 160 to 163 °C.

Take `CC(C)(C)OC(=O)NC(Cc1cc(C(=O)c2cc(C(F)(F)F)cc(C(F)(F)F)c2)ccc1[N+](=O)[O-])C(=O)OC(C)(C)C` (stereo not drawn): the melting point was 176 to 177 °C.

In turn, `Cc1cc(-c2cccc(NC(=O)N[C@@H]3c4cc(C#N)ccc4OC(C)(C)[C@H]3O)c2)no1` had a melting point of 110 to 120 °C.

In the case of `Cc1c(S(=O)(=O)Nc2ccc(-c3nc(CO)cs3)cc2S(C)(=O)=O)sc2ccc(F)cc12`, the melting point is 209 to 210 °C.

`CCCCCCCCC(O)C=Cc1cccc(Oc2cccc(C(=O)O)c2)n1` (racemic) registered a melting point of 85 to 87 °C.

For the compound `O=[N+]([O-])OCCNC(=S)Cc1ccccc1`, the melting point was in the range of 63 to 65 °C.

In the case of `O=c1c(Cl)c(-c2ccc3c(ccn3[C@H]3CC[C@H](O)CC3)c2)ccn1CC1CC1`, the melting point stood at 209 °C.

In turn, `O=S(=O)(NCc1ccnc2c(Cl)cccc12)c1ccc(-c2ccc(C(F)(F)F)cc2C(F)(F)F)cc1` registered a melting point of 184 to 185 °C.

Regarding `Cc1oc(-c2ccccc2)nc1CCOc1ccc(CCCO)cc1`, the melting point lay in the range of 99 to 100 °C.

In turn, `CCOC(=O)Cc1c(-c2cccnc2)c2cc(CN3CCN(c4ccccc4)CC3)c(Cl)cc2oc1=O` registered a melting point of 153 to 157 °C.

Regarding `CC(C)Sc1c(N)cccc1C#N`, the melting point came to 82 °C.

Take `CC1(C)CC(=O)c2ccc(Cl)cc2O1`: the melting point fell in the range of 63 to 66 °C.

The compound `Cc1ccc(-c2ccc3c(c2)C=C(C(=O)Nc2ccc(CCl)cc2)CCO3)cc1` returned a melting point of 164 °C.

Regarding `Cc1cc([C@@H]2C[C@H]2c2nc3ccccc3n2C)cc(-n2nc(C)nc2C)n1` (relative stereo), the melting point is 157 to 159 °C.

As to `Fc1cc(Cl)ccc1C1(Br)NNC2=C1CCCC2` (stereo not drawn), the melting point is 95 to 98 °C.

`CC(=O)OCC1OC(SC(c2ccccc2)(c2ccccc2)c2ccccc2)C(OC(C)=O)C(OC(C)=O)C1OC(C)=O` (stereo not drawn): the melting point was 178 to 180 °C.

As for `COCOc1ccc(Cc2cccc(-c3c(O)c4ccc(Cl)cc4[nH]c3=O)c2)cc1`, the melting point fell in the range of 261 to 264 °C.

The compound `CON=C(C(=O)OC)c1cccc(OC)c1` had a melting point of 66 to 68 °C.

Compound `O=C(Nc1ccc(Oc2ccnc(NC3CCCCC3)n2)c2ccccc12)c1cc(F)cc(N2CCOCC2)c1` displayed a melting point of 135 to 136 °C.
